From patent US20250154145A1, “OXER1 ANTAGONISTS AND USES THEREOF” (Fairhaven Pharmaceuticals Ins., priority 2021, published 2025)

What was measured:
[1] = test system: neutrophils; assay: Neutrophil calcium flux assay (5-OXO-ETE-stimulated, Indo-1 fluorescence); type: cell-based; conditions: Neutrophil, 5-OXO-ETE-stimulated calcium flux
In short: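 Indo-1-loaded neutrophils (5×10^6 cells/ml, 30 min at 37 °C) in HBSS with Ca/Mg and HEPES, pre-incubated 5 min with antagonist or buffer. Stimulated with 5-OXO-ETE added at 200 nM (4× stock); fluorescence (ex 331/em 410 nm) read every 5 s for 30 cycles, expressed as net fluorescence.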

[2] = molecular target: T1, Human OXER1 (Homo sapiens, UniProt Q8TDS5); assay: BRET early endosome trafficking assay (OXER1-Rluc8 / rGFP-FYVE in HEK293 cells); type: cell-based; conditions: HEK293 cells transfected with OXER1-Rluc8 and rGFP-FYVE, 5-oxo-ETE agonist
T1 construct: host or cells: HEK293 cells, transient transfection
T1 sequence (Q8TDS5 whole entry): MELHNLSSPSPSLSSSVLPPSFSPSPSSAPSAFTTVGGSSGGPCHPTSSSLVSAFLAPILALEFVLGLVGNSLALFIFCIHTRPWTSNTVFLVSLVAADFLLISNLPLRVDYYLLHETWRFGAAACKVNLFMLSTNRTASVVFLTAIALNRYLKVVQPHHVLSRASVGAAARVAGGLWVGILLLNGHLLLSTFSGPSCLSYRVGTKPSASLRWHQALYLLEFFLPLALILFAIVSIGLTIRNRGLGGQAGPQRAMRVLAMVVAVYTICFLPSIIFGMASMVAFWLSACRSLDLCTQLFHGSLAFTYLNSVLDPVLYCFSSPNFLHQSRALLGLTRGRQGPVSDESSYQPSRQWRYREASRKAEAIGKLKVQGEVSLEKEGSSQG
Source text: Background—The following assay can be used for determination of OXER1 activation in living HEK293 cells. Signalling functions of GPCRs are tightly regulated by endocytosis, the targeting of receptors to endosomes and their sorting to lysosomes or recycling to the plasma membrane. The early endosomes (EEs) trafficking assay (Namkung et al., Monitoring G protein-coupled receptor and β-arrestin trafficking in live cells using enhanced bystander BRET, Nat Commun 2016, 7: 12178) uses Rluc8-tagged OXER1 and Renilla GFP (rGFP) attached to the FYVE domain from human endofin/zinc finger FYVE domain-containing protein 16, which binds phosphatidylinositol 3-phosphate in EEs. Agonist stimulation of OXER1-Rluc8 leads to trafficking of the receptor to EEs, and ensuing increase of the donor concentration relative to the rGFP-FYVE acceptor anchored in the same cellular compartment, and thus results in an increase in BRET signal.
Plasmids—Human OXER1 VersaClone cDNA was obtained from R&D Systems. Rluc8 (A55T, C124A, S130A, K136R, A143M, M185V, M253L, and S287L variant of theRenilla renformis luciferase) gBlocks gene fragment (Integrated DNA Technologies, IA) was inserted with linker in frame at the C-terminus of OXER1. The FYVE domain from human endofin (residues Q739 to K806) attached in frame at the C terminus of a humanized Renilla GFP (rGFP), were synthesized as gBlocks gene fragments.
Bioluminescence Resonance Energy Transfer (BRET) Measurement—HEK293 cells were transfected with OXER1-Rluc8 and rGFP-FYVE. The following day, transiently transfected cells were seeded in 96-well white clear bottom microplates coated with poly-D-lysine and left in culture for 24 hours. Cells were washed once with Tyrode's buffer (140 mmol/L NaCl, 1 mmol/L CaCl2, 2.7 mmol/L KCl, 0.49 mmol/L MgCl2, 0.37 mmol/L NaH2PO4, 5.6 mmol/L glucose, 12 mmol/L NaHCO3, and 25 mmol/L HEPES, pH 7.5) before performing assays in Tyrode's buffer. Test compounds were incubated with cells for 15 minutes at 37° C. before addition of […] of the OXER1 agonist 5-oxo-6E,8Z,1IZ,14Z-eicosatetraenoic acid (5-oxo-ETE) for 45 minutes at 37° C. The Rluc8 substrate coelenterazine 400A (Prolume, Lakeside, AZ) was added at a final concentration of […] and BRET readings were collected using a Spark or Infinite M1000 microplate reader (Tecan, Morrisville, NC). BRET^2 readings between Rluc8 and rGFP were collected by sequential integration of the signals detected in the 370 to 450 nm (Rluc8) and 510 to 540 nm (rGFP) windows. The BRET signal was calculated as the ratio of light emitted by acceptor (rGFP) over the light emitted by donor (Rluc8). Ligand-promoted net BRET values were calculated by subtracting vehicle-induced net BRET from ligand-induced net BRET.

CCCCCCc1c(C(=O)C[C@H](C)CC(=O)O)c2cc(Cl)ccc2n1C [Compound I-11]
IC50 [1]: 100 to 300 nM
IC50 [2]: 100 to 300 nM

C[C@H](CC(=O)O)CC(=O)c1c(CCCCCCc2ccc(O)cc2)n(C)c2ccc(Cl)cc12 [Compound I-10]
IC50 [1]: < 100 nM
IC50 [2]: < 100 nM

CC(CC(=O)O)CC(=O)c1c(CCCCOCc2ccccc2)n(C)c2ncc(C#N)cc12 (stereo not drawn) [Compound I-104]
IC50 [1]: < 100 nM
IC50 [2]: 100 to 300 nM

C[C@H](CC(=O)O)CC(=O)c1c(CCCCCCc2ccccc2)n(C)c2ccc(Cl)cc12 [Compound I-7]
IC50 [1]: < 100 nM
IC50 [2]: < 100 nM

C[C@H](CC(=O)O)CC(=O)c1c([C@@H](O)CCCCCc2cccc(Cl)c2)n(C)c2ccc(Cl)cc12 [Compound I-3]
IC50 [1]: > 300 nM
IC50 [2]: < 100 nM

C[C@H](CC(=O)O)CC(=O)c1c(CCCCCCc2cccc(Cl)c2)sc2ccc(Cl)cc12 [Compound I-23]
IC50 [1]: 100 to 300 nM
IC50 [2]: < 100 nM

C[C@@H](CC(=O)O)CC(=O)c1c(CCCCCCc2ccccc2)n(C)c2ccc(Cl)cc12 [Compound I-8]
IC50 [1]: > 300 nM
IC50 [2]: > 300 nM

CC(C)C#CCCCCCCc1c(C(=O)C[C@H](C)CC(=O)O)c2cc(Cl)ccc2n1C [Compound I-68]
IC50 [1]: < 100 nM
IC50 [2]: < 100 nM

C[C@H](CC(=O)O)CC(=O)c1c(CCCCCCc2cccc(F)c2)n(C)c2ccc(Cl)cc12 [Compound I-9]
IC50 [1]: < 100 nM
IC50 [2]: < 100 nM

C[C@H](CC(=O)O)CC(=O)c1c(CCCCCCc2cccc(Cl)c2)n(C)c2ccc(Cl)cc12 [Compound I-2]
IC50 [1]: < 100 nM
IC50 [2]: < 100 nM

C[C@H](CC(=O)O)CC(=O)n1c(CCCCCCc2cccc(Cl)c2)cc2ccc(Cl)cc21 [Compound I-39]
IC50 [1]: > 300 nM
IC50 [2]: 100 to 300 nM

[2H]C([2H])([2H])n1c(CCCCCCc2cccc(Cl)c2)c(C(=O)C[C@H](C)CC(=O)O)c2cc(Cl)ccc21 [Compound I-40]
IC50 [1]: < 100 nM
IC50 [2]: < 100 nM

C[C@H](CC(=O)O)CC(=O)c1c(CCCCCC(O)c2cccc(Cl)c2)n(C)c2ncc(Cl)cc12 (stereo partly drawn) [Compound I-85]
IC50 [1]: < 100 nM
IC50 [2]: < 100 nM

C[C@H](CC(=O)NO)CC(=O)c1c(CCCCCCc2cccc(Cl)c2)n(C)c2ccc(Cl)cc12 [Compound I-17]
IC50 [1]: > 300 nM
IC50 [2]: > 300 nM

CONC(=O)C[C@H](C)CC(=O)c1c(CCCCCCc2cccc(Cl)c2)n(C)c2ccc(Cl)cc12 [Compound I-20]
IC50 [1]: 100 to 300 nM
IC50 [2]: > 300 nM

C[C@@H](CC(=O)c1c(CCCCCCc2cccc(Cl)c2)n(C)c2ccc(Cl)cc12)Cc1nnn[nH]1 [Compound I-13]
IC50 [1]: < 100 nM
IC50 [2]: < 100 nM

C[C@H](CC(=O)O)CC(=O)c1c(CCCCCOc2cccc(Cl)c2)n(C)c2ccc(Cl)cc12 [Compound I-59]
IC50 [1]: < 100 nM
IC50 [2]: 100 to 300 nM

C[C@H](CC(=O)O)CC(=O)c1c([C@H](O)CCCCCc2cccc(Cl)c2)n(C)c2ccc(Cl)cc12 [Compound I-5]
IC50 [1]: > 300 nM
IC50 [2]: > 300 nM
